Experimental data as given in ChEMBL document CHEMBL5329192, “Synthesis, biological activities, and future perspectives of steroidal monocyclic pyridines” (RSC Med Chem, 2023).

Key:
[1] = tested on: MGC-803; assay: Cytotoxicity against human MGC-803 cells assessed as reduction in cell viability incubated for 72 hrs by MTT assay; assay type: functional, cell-based; settings: MGC-803, 72 h
[2] = tested on: ECa-109 cell line; assay: Cytotoxicity against human Eca-109 cells assessed as reduction in cell viability incubated for 72 hrs by MTT assay; assay type: functional, cell-based; settings: ECa-109, 72 h
[3] = tested on: PC-3; assay: Cytotoxicity against human PC-3 cells assessed as reduction in cell viability incubated for 72 hrs by MTT assay; assay type: functional, cell-based; settings: PC-3, 72 h
[4] = tested on: A549; assay: Cytotoxicity against human A549 cells assessed as reduction in cell viability incubated for 72 hrs by MTT assay; assay type: functional, cell-based; settings: A549, 72 h
[5] = tested on: MCF7; assay: Cytotoxicity against human MCF7 cells assessed as reduction in cell viability incubated for 72 hrs by MTT assay; assay type: functional, cell-based; settings: MCF7, 72 h
[6] = Cytotoxicity against human HEp-2 cells assessed as reduction in cell viability incubated for 48 hrs by MTT assay; assay type: toxicity, cell-based
[7] = tested on: HeLa; assay: Antiproliferative activity against human HeLa cells assessed as reduction in cell growth incubated for 48 hrs by MTT assay; assay type: functional, cell-based
[8] = tested on: HepG2; assay: Antiproliferative activity against human HepG2 cells assessed as reduction in cell growth incubated for 48 hrs by MTT assay; assay type: functional, cell-based; settings: HepG2, 48 h
[9] = tested on: MCF7; assay: Antiproliferative activity against human MCF7 cells assessed as reduction in cell growth incubated for 48 hrs by MTT assay; assay type: functional, cell-based; settings: MCF7, 48 h
[10] = tested on: SK-OV-3; assay: Antiproliferative activity against human SK-OV-3 cells assessed as reduction in cell growth incubated for 48 hrs by MTT assay; assay type: functional, cell-based; settings: SK-OV-3, 48 h

Compound | IC50 [1] [µM] | IC50 [2] [µM] | IC50 [3] [µM] | IC50 [4] [µM] | IC50 [5] [µM] | IC50 [7] [µM] | IC50 [8] [µM] | IC50 [9] [µM] | IC50 [10] [µM] | further results
C[C@]12CC[C@H]3[C@@H](CC=C4C[C@@H](O)CC[C@@]43C)[C@@H]1CC[C@@H]2c1cc(-c2ccc(F)cc2F)c(C#N)c(N)n1 | 22.7 | 58 | 3.5 | > 64 | 30.3 |  |  |  |  | 
CC(=O)O[C@H]1CC[C@@]2(C)C(=CC[C@H]3[C@@H]4CC[C@H](c5cc(-c6ccc(C#N)cc6)c(C#N)c(N)n5)[C@@]4(C)CC[C@@H]32)C1 |  |  |  |  |  |  |  |  |  | CC50 at 48 h [6]: 39.3 µM
CC(=O)O[C@H]1CC[C@@]2(C)C(=CC[C@H]3[C@@H]4CC[C@H](c5cc(-c6cccc(Cl)c6)c(C#N)c(N)n5)[C@@]4(C)CC[C@@H]32)C1 |  |  |  |  |  |  |  |  |  | CC50 at 48 h [6]: 181 µM
CCOc1ccc(-c2cc([C@H]3CC[C@H]4[C@@H]5CC=C6C[C@@H](O)CC[C@]6(C)[C@H]5CC[C@]34C)nc(N)c2C#N)cc1 |  |  |  |  |  | 26.7 | 26.7 | 31.2 | 28.3 | 
COc1cccc(-c2cc([C@H]3CC[C@H]4[C@@H]5CC=C6C[C@@H](O)CC[C@]6(C)[C@H]5CC[C@]34C)nc(N)c2C#N)c1 | > 64 | > 64 | 7.5 | > 64 | 27.4 |  |  |  |  | 
CC(=O)O[C@H]1CC[C@@]2(C)C(=CC[C@H]3[C@@H]4CC[C@H](c5cc(-c6ccccc6)c(C#N)c(N)n5)[C@@]4(C)CC[C@@H]32)C1 |  |  |  |  |  |  |  |  |  | CC50 at 48 h [6]: 227 µM
CC(=O)O[C@H]1CC[C@@]2(C)C(=CC[C@H]3[C@@H]4CC[C@H](c5cc(-c6ccc(F)cc6F)c(C#N)c(N)n5)[C@@]4(C)CC[C@@H]32)C1 |  |  |  |  |  |  |  |  |  | CC50 at 48 h [6]: 174 µM
C[C@]12CC[C@H]3[C@@H](CC=C4C[C@@H](O)CC[C@@]43C)[C@@H]1CC[C@@H]2c1cc(-c2ccccc2F)c(C#N)c(N)n1 | 9.4 | 17.8 | 3.2 | 28.8 | 10.1 |  |  |  |  | 
COc1ccc(-c2cc([C@H]3CC[C@H]4[C@@H]5CC=C6C[C@@H](O)CC[C@]6(C)[C@H]5CC[C@]34C)nc(N)c2C#N)cc1OC |  |  |  |  |  | 107 | 55.4 | 107 | 29.5 | 
C[C@]12CC[C@H]3[C@@H](CC=C4C[C@@H](O)CC[C@@]43C)[C@@H]1CC[C@@H]2c1cc(-c2ccncc2)c(C#N)c(N)n1 |  |  |  |  |  | 73.3 | 103 | 47.8 | 18.9 | 
C[C@]12CC[C@H]3[C@@H](CC=C4C[C@@H](O)CC[C@@]43C)[C@@H]1CC[C@@H]2c1cc(-c2ccnc(Br)c2)c(C#N)c(N)n1 | 19.7 | 22.3 | 7 | 43.6 | > 64 |  |  |  |  | 
C[C@]12CC[C@H]3[C@@H](CC=C4C[C@@H](O)CC[C@@]43C)[C@@H]1CC[C@@H]2c1cc(-c2ccc(OCc3ccccc3)cc2)c(C#N)c(N)n1 |  |  |  |  |  | 63.2 | 15.9 | 19 | 26.1 | 
C[C@]12CC[C@H]3[C@@H](CC=C4C[C@@H](O)CC[C@@]43C)[C@@H]1CC[C@@H]2c1cc(-c2cccc(Cl)c2)c(C#N)c(N)n1 | > 64 | > 64 | 9.7 | 30.3 | 29 |  |  |  |  | 
CC(=O)O[C@H]1CC[C@@]2(C)C(=CC[C@H]3[C@@H]4CC[C@H](c5cc(-c6ccc(Cl)cc6)c(C#N)c(N)n5)[C@@]4(C)CC[C@@H]32)C1 |  |  |  |  |  |  |  |  |  | CC50 at 48 h [6]: 252 µM
COc1ccccc1-c1cc([C@H]2CC[C@H]3[C@@H]4CC=C5C[C@@H](O)CC[C@]5(C)[C@H]4CC[C@]23C)nc(N)c1C#N | 17 | 19.7 | 8 | 20.7 | 45.2 |  |  |  |  | 
COc1ccc(-c2cc([C@H]3CC[C@H]4[C@@H]5CC=C6C[C@@H](O)CC[C@]6(C)[C@H]5CC[C@]34C)nc(N)c2C#N)cc1O |  |  |  |  |  | 15 | 50.2 | 17 | 17.3 | 

Compound | IC50 [1] [µM] | IC50 [2] [µM] | IC50 [3] [µM] | IC50 [4] [µM] | IC50 [5] [µM] | IC50 [7] [µM] | IC50 [8] [µM] | IC50 [9] [µM] | IC50 [10] [µM] | further results
C[C@]12CC[C@H]3[C@@H](CC=C4C[C@@H](O)CC[C@@]43C)[C@@H]1CC[C@@H]2c1cc(-c2ccc(F)c(Br)c2)c(C#N)c(N)n1 | > 64 | > 64 | 5.9 | 56.2 | 37.3 |  |  |  |  | 
COc1ccccc1-c1cc([C@H]2CC[C@H]3[C@@H]4CC=C5C[C@@H](OC(C)=O)CC[C@]5(C)[C@H]4CC[C@]23C)nc(N)c1C#N |  |  |  |  |  |  |  |  |  | CC50 at 48 h [6]: 299 µM
COc1cccc(-c2cc([C@H]3CC[C@H]4[C@@H]5CC=C6C[C@@H](OC(C)=O)CC[C@]6(C)[C@H]5CC[C@]34C)nc(N)c2C#N)c1 |  |  |  |  |  |  |  |  |  | CC50 at 48 h [6]: 160 µM
C[C@]12CC[C@H]3[C@@H](CC=C4C[C@@H](O)CC[C@@]43C)[C@@H]1CC[C@@H]2c1cc(-c2c(F)cccc2F)c(C#N)c(N)n1 | 8.8 | > 64 | 2 | 17.3 | 11.6 |  |  |  |  | 
C[C@]12CC[C@H]3[C@@H](CC=C4C[C@@H](O)CC[C@@]43C)[C@@H]1CC[C@@H]2c1cc(-c2ccc(Br)cc2)c(C#N)c(N)n1 |  |  |  |  |  | 12.2 | 15.2 | 12 | 7.66 | 
C[C@]12CC[C@H]3[C@@H](CC=C4C[C@@H](O)CC[C@@]43C)[C@@H]1CC[C@@H]2c1cc(-c2ccc(OCc3ccccc3)c(OCc3ccccc3)c2OCc2ccccc2)c(C#N)c(N)n1 |  |  |  |  |  | 38.9 | 41.4 | 105 | 33.9 | 
C[C@]12CC[C@H]3[C@@H](CC=C4C[C@@H](O)CC[C@@]43C)[C@@H]1CC[C@@H]2c1cc(-c2ccccc2Br)c(C#N)c(N)n1 |  |  |  |  |  | 18.6 | 28.4 | 33.9 | 11.2 | 
C[C@]12CC[C@H]3[C@@H](CC=C4C[C@@H](O)CC[C@@]43C)[C@@H]1CC[C@@H]2c1cc(-c2cccnc2)c(C#N)c(N)n1 |  |  |  |  |  | 105 | 75.5 | 30.2 | 92.2 | 
C[C@]12CC[C@H]3[C@@H](CC=C4C[C@@H](O)CC[C@@]43C)[C@@H]1CC[C@@H]2c1cc(-c2ccccc2Cl)c(C#N)c(N)n1 | 8.4 | 30.1 | 3.7 | 33.3 | 18.8 |  |  |  |  | 
CC(=O)O[C@H]1CC[C@@]2(C)C(=CC[C@H]3[C@@H]4CC[C@H](c5cc(-c6c(F)cccc6F)c(C#N)c(N)n5)[C@@]4(C)CC[C@@H]32)C1 |  |  |  |  |  |  |  |  |  | CC50 at 48 h [6]: 374 µM
C[C@]12CC[C@H]3[C@@H](CC=C4C[C@@H](O)CC[C@@]43C)[C@@H]1CC[C@@H]2c1cc(-c2cccc(Br)c2)c(C#N)c(N)n1 |  |  |  |  |  | 46.5 | 41.2 | 28.9 | 17.7 | 
C[C@]12CC[C@H]3[C@@H](CC=C4C[C@@H](O)CC[C@@]43C)[C@@H]1CC[C@@H]2c1cc(-c2ccc(Cl)cc2)c(C#N)c(N)n1 | 55 | 48.9 | 15.7 | 43.9 | 26.2 |  |  |  |  | 
C[C@]12CC[C@H]3[C@@H](CC=C4C[C@@H](O)CC[C@@]43C)[C@@H]1CC[C@@H]2c1cc(-c2cccc(O)c2)c(C#N)c(N)n1 |  |  |  |  |  | 7.36 | 13.8 | 6.28 | 7.02 | 
COc1ccc(-c2cc([C@H]3CC[C@H]4[C@@H]5CC=C6C[C@@H](OC(C)=O)CC[C@]6(C)[C@H]5CC[C@]34C)nc(N)c2C#N)cc1 |  |  |  |  |  |  |  |  |  | CC50 at 48 h [6]: > 400 µM
C[C@]12CC[C@H]3[C@@H](CC=C4C[C@@H](O)CC[C@@]43C)[C@@H]1CC[C@@H]2c1cc(-c2ccco2)c(C#N)c(N)n1 |  |  |  |  |  | 16.3 | 25.8 | 18.8 | 13.9 | 
C[C@]12CC[C@H]3[C@@H](CC=C4C[C@@H](O)CC[C@@]43C)[C@@H]1CC[C@@H]2c1cc(-c2cccc(OCc3ccccc3)c2)c(C#N)c(N)n1 |  |  |  |  |  | 22 | 21.5 | 41.1 | 21.8 | 
